Measurements from patent US20240190880A1 (THE REGENTS OF THE UNIVERSITY OF MICHIGAN, priority 2021, published 2024).

Each compound was assayed against T1, ER (Homo sapiens, UniProt P03372) (assay: ER degradation activity, in-cell western blot analysis in T47D cells). Conditions: 16 hours, Table A does not say which cell line (T47D or MCF7), read-out: Potency (DC50).
T1 construct: host or cells: T47D and MCF7 human breast cancer cells
T1 sequence (P03372 1-595): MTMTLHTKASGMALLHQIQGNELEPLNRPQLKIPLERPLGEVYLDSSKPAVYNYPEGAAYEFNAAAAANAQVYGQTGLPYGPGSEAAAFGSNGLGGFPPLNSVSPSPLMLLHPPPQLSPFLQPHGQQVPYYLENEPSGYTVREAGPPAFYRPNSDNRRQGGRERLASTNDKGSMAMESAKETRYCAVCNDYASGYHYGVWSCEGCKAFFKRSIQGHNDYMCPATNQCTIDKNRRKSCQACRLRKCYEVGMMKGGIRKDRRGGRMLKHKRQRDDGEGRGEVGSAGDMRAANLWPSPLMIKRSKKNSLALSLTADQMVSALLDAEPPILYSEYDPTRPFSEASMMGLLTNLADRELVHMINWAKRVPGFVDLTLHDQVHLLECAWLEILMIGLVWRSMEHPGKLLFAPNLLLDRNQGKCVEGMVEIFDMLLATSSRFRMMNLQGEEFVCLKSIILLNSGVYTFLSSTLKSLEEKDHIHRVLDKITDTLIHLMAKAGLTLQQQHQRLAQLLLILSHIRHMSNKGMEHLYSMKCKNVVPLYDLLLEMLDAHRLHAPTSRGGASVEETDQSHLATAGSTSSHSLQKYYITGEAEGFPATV
Type: cell-based
Method in brief: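 Human T47D cells (DMEM, 10% FBS) are dosed for 16 h with 0.5% DMSO final and probed with 680- and 800-dye secondary antibodies. Relative ER is calculated against vehicle and untreated wells.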

SMILES | DC50 [µM]
O=C1CCC(N2C(=O)c3cc4c(cc3C2=O)CN(CCN2CC3(CCN(c5ccc([C@@H]6c7ccc(O)cc7CC[C@@H]6c6ccccc6)cc5)CC3)C2)C4)C(=O)N1 (mixture of isomers) [E 267, rac-2-(2,6-dioxopiperidin-3-yl)-6-(2-(7-(4-((1R,2S)-6-hydroxy-2-phenyl-1,2,3,4-tetrahydronaphthalen-1-yl)phenyl)-2,7-diazaspiro[3.5]nonan-2-yl)ethyl)-6,7-dihydropyrrolo[3,4-f]isoindole-1,3(2H,5H)-dione] | 0.01 to 0.1
C[C@@H]1Cc2c([nH]c3ccccc23)[C@@H](c2cnc(N3CCC4(CCN(C(=O)CN5Cc6cc7c(cc6C5)C(=O)N(C5CCC(=O)NC5=O)C7=O)CC4)CC3)nc2)N1CC(F)(F)F (stereo partly drawn) [E 254, 2-(2,6-dioxopiperidin-3-yl)-6-(2-(9-(5-((1R,3R)-3-methyl-2-(2,2,2-trifluoroethyl)-2,3,4,9-tetrahydro-1H-pyrido[3,4-b]indol-1-yl)pyrimidin-2-yl)-3,9-diazaspiro[5.5]undecan-3-yl)-2-oxoethyl)-6,7-dihydropyrrolo[3,4-f]isoindole-1,3(2H,5H)-dione] | < 0.01
C[C@@H]1Cc2cc(O)ccc2[C@@H](c2ccc(N3CCC4(CCN(C(=O)CN5Cc6cc7c(cc6C5)C(=O)N(C5CCC(=O)NC5=O)C7=O)CC4)CC3)cc2)N1CC(F)F (stereo partly drawn) [E 301, 6-(2-(9-(4-((1R,3R)-2-(2,2-difluoroethyl)-6-hydroxy-3-methyl-1,2,3,4-tetrahydroisoquinolin-1-yl)phenyl)-3,9-diazaspiro[5.5]undecan-3-yl)-2-oxoethyl)-2-(2,6-dioxopiperidin-3-yl)-6,7-dihydropyrrolo[3,4-f]isoindole-1,3(2H,5H)-dione] | 0.01 to 0.1
C[C@@H]1Cc2cc(O)ccc2[C@@H](c2c(F)cc(N3CCC(CN4CC(N5Cc6cc7c(cc6C5)C(=O)N(C5CCC(=O)NC5=O)C7=O)C4)CC3)cc2F)N1CC(F)F (stereo partly drawn) [E 47, 6-(1-((1-(4-((1S,3R)-2-(2,2-difluoroethyl)-6-hydroxy-3-methyl-1,2,3,4-tetrahydroisoquinolin-1-yl)-3,5-difluorophenyl)piperidin-4-yl)methyl)azetidin-3-yl)-2-(2,6-dioxopiperidin-3-yl)-6,7-dihydropyrrolo[3,4-f]isoindole-1,3(2H,5H)-dione] | > 0.1
O=C1CCC(N2C(=O)c3cc4c(cc3C2=O)CN(C(=O)C2CCN(C3CCN(c5ccc([C@@H]6c7ccc(O)cc7CC[C@@H]6c6ccc(F)cc6)cc5)CC3)CC2)C4)C(=O)N1 (mixture of isomers) [E 12, Rac-2-(2,6-dioxopiperidin-3-yl)-6-(1′-(4-((1R,2S)-2-(4-fluorophenyl)-6-hydroxy-1,2,3,4-tetrahydronaphthalen-1-yl)phenyl)-[1,4′-bipiperidine]-4-carbonyl)-6,7-dihydropyrrolo[3,4-f]isoindole-1,3(2H,5H)-dione] | < 0.01
C[C@@H]1Cc2c([nH]c3ccccc23)[C@@H](c2c(F)cc(CN3CCC4(CCC(C(=O)N5Cc6cc7c(cc6C5)C(=O)N(C5CCC(=O)NC5=O)C7=O)CC4)CC3)cc2F)N1CC(F)F (stereo partly drawn) [E 382, 6-(3-(4-((1R,3R)-2-(2,2-difluoroethyl)-3-methyl-2,3,4,9-tetrahydro-1H-pyrido[3,4-b]indol-1-yl)-3,5-difluorobenzyl)-3-azaspiro[5.5]undecane-9-carbonyl)-2-(2,6-dioxopiperidin-3-yl)-6,7-dihydropyrrolo[3,4-f]isoindole-1,3(2H,5H)-dione] | > 0.1
O=C1CCC(N2C(=O)c3cc4c(cc3C2=O)CCN(C(=O)CN2CCC3(CC2)CCN(c2ccc([C@@H]5c6ccc(O)cc6CC[C@@H]5c5ccccc5)cc2)CC3)CC4)C(=O)N1 (stereo partly drawn) [E 167, 2-(2,6-dioxopiperidin-3-yl)-7-(2-(9-(4-((1R,2S)-6-hydroxy-2-phenyl-1,2,3,4-tetrahydronaphthalen-1-yl)phenyl)-3,9-diazaspiro[5.5]undecan-3-yl)acetyl)-6,7,8,9-tetrahydroazepino[4,5-f]isoindole-1,3(2H,5H)-dione] | > 0.1
C[C@@H]1Cc2cc(O)ccc2[C@@H](c2c(F)cc(N3CCC(CN4CCC(N5Cc6cc7c(cc6C5)C(=O)N(C5CCC(=O)NC5=O)C7=O)CC4)CC3)cc2F)N1CC(F)F (stereo partly drawn) [E 270, 6-(1-((1-(4-((1S,3R)-2-(2,2-difluoroethyl)-6-hydroxy-3-methyl-1,2,3,4-tetrahydroisoquinolin-1-yl)-3,5-difluorophenyl)piperidin-4-yl)methyl)piperidin-4-yl)-2-(2,6-dioxopiperidin-3-yl)-6,7-dihydropyrrolo[3,4-f]isoindole-1,3(2H,5H)-dione] | > 0.1
O=C1CCC(N2C(=O)c3cc4c(cc3C2=O)CN(C2CN(C(=O)C3CCN(c5ccc([C@@H]6c7ccc(O)cc7CC[C@@H]6c6ccccc6)cc5)CC3)C2)C4)C(=O)N1 (mixture of isomers) [E 15, Rac-2-(2,6-dioxopiperidin-3-yl)-6-(1-(1-(4-((1R,2S)-6-hydroxy-2-phenyl-1,2,3,4-tetrahydronaphthalen-1-yl)phenyl)piperidine-4-carbonyl)azetidin-3-yl)-6,7-dihydropyrrolo[3,4-f]isoindole-1,3(2H,5H)-dione] | 0.01 to 0.1
O=C1CCC(N2C(=O)c3cc4c(cc3C2=O)CN(C(=O)CN2CCC3(CC2)CCN(c2ccc([C@@H]5c6ccc(O)cc6CC[C@@H]5c5ccccc5)c(F)c2)C3)C4)C(=O)N1 (mixture of isomers) [E 153, Rac-2-(2,6-dioxopiperidin-3-yl)-6-(2-(2-(3-fluoro-4-((1S,2S)-6-hydroxy-2-phenyl-1,2,3,4-tetrahydronaphthalen-1-yl)phenyl)-2,8-diazaspiro[4.5]decan-8-yl)acetyl)-6,7-dihydropyrrolo[3,4-f]isoindole-1,3(2H,5H)-dione] | > 0.1
O=C1CCC(N2C(=O)c3cc4c(cc3C2=O)CN(CC2CCN(C(=O)C3(F)CCN(c5ccc([C@@H]6c7ccc(O)cc7CC[C@@H]6c6ccccc6)cc5)CC3)CC2)C4)C(=O)N1 (stereo partly drawn) [E 208, 2-(2,6-dioxopiperidin-3-yl)-6-((1-(4-fluoro-1-(4-((1R,2S)-6-hydroxy-2-phenyl-1,2,3,4-tetrahydronaphthalen-1-yl)phenyl)piperidine-4-carbonyl)piperidin-4-yl)methyl)-6,7-dihydropyrrolo[3,4-f]isoindole-1,3(2H,5H)-dione] | > 0.1
C[C@@H]1Cc2c([nH]c3ccccc23)[C@@H](c2c(F)cc(C3CCN(C[C@H]4CC[C@@H](N5Cc6cc7c(cc6C5)C(=O)N(C5CCC(=O)NC5=O)C7=O)CC4)CC3)cc2F)N1CC(F)F (stereo partly drawn) [E 367, 6-((1S,4s)-4-((4-(4-((1R,3R)-2-(2,2-difluoroethyl)-3-methyl-2,3,4,9-tetrahydro-1H-pyrido[3,4-b]indol-1-yl)-3,5-difluorophenyl)piperidin-1-yl)methyl)cyclohexyl)-2-(2,6-dioxopiperidin-3-yl)-6,7-dihydropyrrolo[3,4-f]isoindole-1,3(2H,5H)-dione] | > 0.1
CN(C1CCC(N2Cc3cc4c(cc3C2)C(=O)N(C2CCC(=O)NC2=O)C4=O)CC1)C1CCN(c2ccc([C@@H]3c4ccc(O)cc4CC[C@@H]3c3ccccc3)cc2)CC1 (stereo partly drawn) [E 324, 2-(2,6-dioxopiperidin-3-yl)-6-(4-((1-(4-((1R,2S)-6-hydroxy-2-phenyl-1,2,3,4-tetrahydronaphthalen-1-yl)phenyl)piperidin-4-yl)(methyl)amino)cyclohexyl)-6,7-dihydropyrrolo[3,4-f]isoindole-1,3(2H,5H)-dione] | > 0.1
O=C1CCC(N2C(=O)c3cc4c(cc3C2=O)CN(CC(=O)N2CCC3(CC2)CCN(c2cc(F)c([C@@H]5c6ccc(O)cc6CC[C@@H]5c5ccccc5)c(F)c2)CC3)C4)C(=O)N1 (mixture of isomers) [E 176, Rac-6-(2-(9-(3,5-difluoro-4-((1S,2S)-6-hydroxy-2-phenyl-1,2,3,4-tetrahydronaphthalen-1-yl)phenyl)-3,9-diazaspiro[5.5]undecan-3-yl)-2-oxoethyl)-2-(2,6-dioxopiperidin-3-yl)-6,7-dihydropyrrolo[3,4-f]isoindole-1,3(2H,5H)-dione] | > 0.1
C[C@@H]1Cc2c([nH]c3ccccc23)[C@@H](c2c(F)cc(N3CC4(CCN(CC(=O)N5Cc6cc7c(cc6C5)C(=O)N(C5CCC(=O)NC5=O)C7=O)C4)C3)cc2F)N1CC(F)F (stereo partly drawn) [E 74, 6-(2-(2-(4-((1R,3R)-2-(2,2-difluoroethyl)-3-methyl-2,3,4,9-tetrahydro-1H-pyrido[3,4-b]indol-1-yl)-3,5-difluorophenyl)-2,6-diazaspiro[3.4]octan-6-yl)acetyl)-2-(2,6-dioxopiperidin-3-yl)-6,7-dihydropyrrolo[3,4-f]isoindole-1,3(2H,5H)-dione] | 0.01 to 0.1
C[C@@H]1Cc2cc(O)ccc2[C@@H](c2ccc(N3CCC(C(=O)N4CCC(N5Cc6cc7c(cc6C5)C(=O)N(C5CCC(=O)NC5=O)C7=O)CC4)CC3)cc2)N1CC(F)F (stereo partly drawn) [E 318, 6-(1-(1-(4-((1R,3R)-2-(2,2-difluoroethyl)-6-hydroxy-3-methyl-1,2,3,4-tetrahydroisoquinolin-1-yl)phenyl)piperidine-4-carbonyl)piperidin-4-yl)-2-(2,6-dioxopiperidin-3-yl)-6,7-dihydropyrrolo[3,4-f]isoindole-1,3(2H,5H)-dione] | < 0.01
